Test results: ChEMBL document CHEMBL1129207, “Altering the specificity of subtilisin B. Lentus by combining site-directed mutagenesis and chemical modification” (Bioorg Med Chem Lett, 1996)

How the values were obtained:
Parameters in all cases: species or system Lederbergia lenta
[1] = Compound was evaluated for the inhibition of SBL-M222C-SEtNH3+ enzyme.
[2] = Compound was evaluated for the inhibition of SBL-M222C enzyme.
[3] = Compound was evaluated for the inhibition of SBL-WT enzyme.
[4] = Compound was evaluated for the inhibition of SBL-M222C-SMe enzyme.
[5] = Compound was evaluated for the inhibition of SBL-M222C-SEtSO3- enzyme.

Row | Compound | Ki [1] [µM] | Ki [2] [µM] | Ki [3] [µM] | Ki [4] [µM] | Ki [5] [µM]
1 | OB(O)c1cccc(-c2ccccc2)c1 | 40 | 31 | 327 | 153 | 25
2 | OB(O)c1ccc(Cl)cc1Cl | 8.9 | 18 | 9.2 | 3.8 | 11
3 | Nc1cccc(B(O)O)c1 | 127 | 204 | 150 | 139 | 176
4 | OB(O)c1ccc(Br)cc1 | 10.5 | 23 | 23 | 11.2 | 15.6
5 | OB(O)c1ccccc1 [PHENYLBORONIC ACID] | 108 | 155 | 141 | 123 | 146
